The results in this text go back to patent publication US9040261B2, “Compounds as L-cystine crystallization inhibitors and uses thereof” (NEW YORK UNIVERSITY, priority 2009, dated 2015).

Where a name gives a salt, the structure may show the parent alone. Marks after values point to notes of the source that are not given here.

The nature of test [1]: Bulk crystallization of L-cystine in the presence of additives (mass yield). Conditions: for influence on L-cystine growth: polymers and proteins with proximal carboxylate and amine groups. The method, then:
Alternately, the hexagonal crystals can be obtained by crystallization performed near neutral pH (Sa) The hexagonal form was crystallized from a supersaturated L-cystine solution prepared by adding 70 mg of L-cystine to 100 mL of deionized water (3 mM), and heating under reflux at 100° C. for 20 min with stirring to completely dissolve L-cystine. […] This concentration was used for bulk crystallization studies in the presence of additives so that a measurable amount of bulk crystals could be obtained in a reasonable time. The solution was then allowed to cool slowly with stirring for 75 min. 30 mL aliquots were transferred to separate glass containers, which were then sealed to prevent evaporation and exposure to airborne particulates and stored for 72 hours at room temperature without stirring. […] The crystals retrieved in this manner were used for AFM studies by mounting individual crystals according to the procedure described below.
Various proteins, poly-amino acids, and molecular mimics of L-cystine were examined as additives. The aforementioned procedure for hexagonal platelet crystallization was repeated. Following the 75 min cooling period, prior to any observable crystallization, the additive was added to the supersaturated L-cystine solution to the desired concentration. […] Crystallization without additive was performed in an identical manner for comparison using a control solution from the same batch. The mass yields of L-cystine crystals were obtained by dividing the mass of L-cystine crystals (collected from growth solution by filtration) by the mass of L-cystine added in the growth solution.
Additives chosen for these studies were various proteins, poly-amino acids, and molecular mimics of L-cystine (see Table 1). The above procedure for hexagonal platelet crystallization was repeated until completion of the 75 min cooling period, at which point 29.5 g of solution was transferred to a 100 mL beaker containing 0.5 g of separately prepared additive solution to yield net concentrations of 2 mg/L additive and 0.7 g/L L-cystine. Additive solutions were replaced with deionized water of equivalent volume for control measurements. […]
L-cystine bulk crystallization was investigated in the presence of various polymers, urinary constituents, fish antifreeze proteins (AFPs), and L-cystine derivatives (i.e. structural mimics of L-cystine), which were analyzed as possible growth inhibitors of hexagonal L-cystine. The potency of each additive was assessed by comparing the difference in crystal yield (Table 1), which is equal to the mass of crystals formed in the presence of 2 mg/L additive (isolated with […]) divided by the total mass of L-cystine (700 mg/L).

Test [2] is described as follows: Crystal size and habit by optical microscopy and SEM after bulk crystallization with additive. The note with it: for L-cystine crystal habit in the presence of additive: hexagonal platelets without additive. The method, then:
Various proteins, poly-amino acids, and molecular mimics of L-cystine were examined as additives. The aforementioned procedure for hexagonal platelet crystallization was repeated. Following the 75 min cooling period, prior to any observable crystallization, the additive was added to the supersaturated L-cystine solution to the desired concentration. The container was sealed and stored for 72 hours at room temperature without stirring, after which the precipitate was collected by vacuum filtration (Whatman Grade 1 filters, >11 μm pores) and were air dried prior to analysis. Crystallization without additive was performed in an identical manner for comparison using a control solution from the same batch. The mass yields of L-cystine crystals were obtained by dividing the mass of L-cystine crystals (collected from growth solution by filtration) by the mass of L-cystine added in the growth solution. The crystals were isolated with 11 μm-pore filters, which were regarded as sufficiently small for reliable capture of the crystals (optical micrographs reveal that the size of crystals was always greater than 50 μm
An Orion 3 Star pH meter (Thermo Electron Corp.) with Orion 9157BNMD probe was used to measure the pH of L-cystine solutions. Crystal morphology was measured with a Leitz ERGOLUZ optical microscope and a Hitachi 3500 scanning electron microscopy. A thin coating of gold (2 nm) was sputtered on SEM samples and images were acquired at low voltage (2-5 kV) to minimize sample melting. ^1H NMR spectra were recorded using a Bruker AVANCE 400 spectrometer and were routinely run using broadband decoupling. Chemical shifts (δ), expressed in ppm, are referenced to the corresponding residual nuclei in deuterated solvent (D2O). Powder X-ray diffraction (XRD) patterns of isolated crystals were acquired with a Panalytical XPert PRO MPD using a Bragg-Brentano geometry with fixed slits at power settings of 45 kV and 40 mA. A CuKa radiation (0.154 nm) source was used with a 1 degree fixed divergence slit (10 mm beam mask) for incident X-rays and a 1 degree anti-scatter slit Ni filter ( 1/16 degree receiving slit) for diffracted X-rays.

The nature of test [3]: AFM step velocity and hillock imaging with L-cystine diesters under continuous flow. The note with it: 0.015 mM inhibitor, 2 mM L-cystine. The method, then: Atomic force microscopy was performed with a Digital Instruments (Santa Barbara, Calif.) Nanoscope Ma Multimode system. All measurements were performed in a cell designed to contain liquids for in situ imaging, including step velocity measurements. All measurements were performed in contact mode using Veeco NP_B Si3N4 tips on silicon nitride cantilevers with a spring constant of 0.12N/m (triangular, 196 μm length, 41 μm width). L-cystine crystals (hexagonal form) were transferred onto an AFM specimen disk coated with partially cured (1 hr) UV-curable optical cement (Type SK-9, EMS Acquisition Corp.) by gently pressing the disk against hexagonal platelets collected by filtration (Whatman Nuclepore membrane, 8 μm). The (001) faces of the hexagonal plates naturally aligned parallel with the specimen disk such that the velocity of the equivalent {100} steps could be measured readily by AFM. The partially cured polymer with the adhered crystals was cured completely by additional UV radiation (2 hrs) prior to analysis. The mounted L-cystine crystals were etched slightly by immersion in deionized water for 30 sec at 60° C. to remove amorphous deposits or impurities that may be present on the surface. Step velocities on the hexagonal L-cystine crystals were measured by AFM using a fluid cell containing an aqueous solution, supersaturated with L-cystine (2 mM), introduced to the cell via a syringe. Step velocities were determined by measuring the distance of the steps from a reference point, usually the dislocation core, in consecutive deflection images acquired at periodic intervals, ranging from 9-14 sec. Measurements were acquired under continuous flow of fresh solution in order to maintain constant supersaturation and additive concentration. […] The step velocities, which correspond to the crystal growth rates, were measured with and without inhibitor for each pair.

Where [4] appears, read: 2 mg/L additive, 0.7 g/L L-cystine (pH 6.8), no additive 80, approximate error ±8%.
The mark [5] stands for this setting: 10 mg/L L-cysteine methylester, 700 mg/L L-cystine.

In the case of Poly-L-lysine [reference compound], the “Yield (%) = (collected mass by filtration, >11 μm)/(total mass added) × 100%” value (“Yield (%) =” for short) in test [1] (setting [4]) turned out to be 64%. For the same compound, the “influence on L-cystine growth” value in test [1] (Table 1) was “negligible influence”.

As for Poly-L-glutamate [reference compound], the “Yield (%) =” value in test [1] (setting [4]) came out at 56%. Also, the “influence on L-cystine growth” value in test [1] (Table 1) was “negligible influence”.

Take “Osteopontin (bovine): Osteopontin, extracted and purified from bovine milk, contains 7 wt % Ca2+ ions”: the “Yield (%) =” value in test [1] (setting [4]) stood at 52%. The “influence on L-cystine growth” value in test [1] (Table 1) was “negligible influence”.

Consider `CC(C)(C)SSC[C@H](N)C(=O)O` [S-tert-butylmercapto-L-cystine, 5-tert-butylmercapto-L-cysteine, reference compound], for which the “Yield (%) =” value in test [1] (setting [4]) is reported as 45%.

As for `N[C@@H](CS)C(=O)O` [L-cysteine, reference compound], the “L-cystine crystal habit in the presence of additive” value (“L-cystine crystal habit” below) in test [2] was “Hexagonal L-cystine platelets”. Also, in test [1] (10 mg/L additive, 0.7 g/L L-cystine, no additive 80±8%), the “Yield (%) =” value came out at 91%. In addition, the “influence on mass yield” value in test [1] (bulk crystallization, Table 1) is recorded as “did not influence the yield”.

On to `COC(=O)[C@@H](N)CS.Cl` [L-cysteine methyl ester, L-cysteine methyl ester hydrochloride, reference compound], for which, in test [2] (setting [5]), the needle length is given as < 50 μm and the needle width is listed as < 5 μm. Further, the “L-cystine crystal habit” value in test [2] is “needles”. Besides, the “Yield (%) =” value in test [1] (10 mg/L additive, 0.7 g/L L-cystine, no additive 80±8%, hydrochloride) was 32%.

Regarding `CC(C)(C)OC(=O)[C@@H](N)CSSC[C@H](N)C(=O)OC(C)(C)C` [L-CDTE, Cystine Di-t-Butyl Ester], the “order of step roughening, corresponding to the trend in inhibition” value (shortened to “order of step roughening … in inhibition”) in test [3] is reported as “L-CDME>L-CDEE>L-CDIE>L-CDTE”.

Turning to “Tamm-Horsfall protein: Tamm-Horsfall protein obtained from a human sample with no history of kidney stone disease”, the “Yield (%) =” value in test [1] (setting [4]) is 69%. Moreover, the “influence on L-cystine growth” value in test [1] (Table 1) is listed as “negligible influence”.

On to Poly-L-aspartate [reference compound], for which the “Yield (%) =” value in test [1] (setting [4]) is listed as 44%.

Consider `O=C(O)CC(O)(CC(=O)O)C(=O)O` [Citrate, sodium citrate (dihydrate), reference compound], for which the “Yield (%) =” value in test [1] (pH 6.8) is given as 74%.

For Chondroitin sulfate, in test [1] (setting [4]), the “Yield (%) =” value came to 64%.

In the case of “Desialylated Tamm-Horsfall protein: native THP desialylated by treatment with neuraminidase (50% reduction of carbohydrate content)”, the “Yield (%) =” value in test [1] (setting [4]) is given as 41%.

In the case of `CC(C)OC(=O)[C@@H](N)CSSC[C@H](N)C(=O)OC(C)C` [L-CDIE, L-Cystine Di-Isopropyl Ester], the “order of step roughening … in inhibition” value in test [3] is recorded as “L-CDME>L-CDEE>L-CDIE>L-CDTE”.

`COC(=O)[C@@H](N)CSSC[C@H](N)C(=O)O` [CME, L-Cystine Methyl Ester]: in test [2], the “needle volume less than hexagonal platelets” value is on record as ~100 times and the “L-cystine crystal habit” value was “tapered hexagonal crystals”. In test [1] (setting [4]), the “Yield (%) =” value is reported as 92* %. Besides, the “CME concentration needed for crystal growth inhibition similar to CDME” value in test [1] (bulk crystallization) is “more than twice that of CDME”.

Poly-L-arginine [reference compound]: in test [1] (setting [4]), the “Yield (%) =” value was 34%.

For “Transferrin: apo-transferrin (human, >98%)”, the “Yield (%) =” value in test [1] (setting [4]) stood at 56%.

Regarding `O=C(O)CCSSCCC(=O)O` [3,3′-Dithiodiproprionic acid, 3,3′-dithiodipropionic acid, reference compound], in test [1] (setting [4]), the “Yield (%) =” value turned out to be 72%.

With `CC(C)(SSC(C)(C)[C@@H](N)C(=O)O)[C@H](N)C(=O)O` [D-penicillamine disulfide, reference compound], the “Yield (%) =” value in test [1] (setting [4]) was 65%.

As to `CCOC(=O)[C@@H](N)CSSC[C@H](N)C(=O)OCC` [L-CDEE, Cystine Diethyl Ester], the “order of step roughening … in inhibition” value in test [3] is on record as “L-CDME>L-CDEE>L-CDIE>L-CDTE”.
